Laboratory results taken from ChEMBL document CHEMBL1201862, “PubChem BioAssay data set” (2004).
Active and inactive are the calls of the source.

How the values were obtained:
[1] = molecular target: fMet-Leu-Phe receptor (Homo sapiens, UniProt P21462); assay: formyl peptide receptor binders – dose response (AID 519); assay type: functional
[2] = molecular target: Disintegrin and metalloproteinase domain-containing protein 17 (Homo sapiens, UniProt P78536); assay: exosite inhibitors of ADAM17, dose response, biochemical (AID 743260)
[3] = inhibition of ADAM10 peptide cleavage – biochemical, FRET peptide substrate, recombinant human ADAM10, selectivity assay for ADAM17 exosite inhibitor project, dose response (AID 743259);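 note: ADAM10 enzyme cleaving a FRET peptide substrate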
[4] = A549 cell cytotoxicity, dose response, cytotoxicity control, plate reader, cherry-pick, antagonist series (AID 743412); assay type: functional, cell-based
[5] = viability loss in HEK293 cells – cell-based, plate reader, cherry-picked samples, cytotoxicity control, dose response (AID 743446); assay type: functional
[6] = HGIII-sPLA2 enzyme inhibition potency – biochemical, QFRET, IC50, dose response (AID 743457);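 note: green fluorescence rise as the enzyme cleaves BODIPY PC-A2 in liposomes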
[7] = molecular target: Kallikrein-7 (Homo sapiens, UniProt P49862); assay: Fluorescence Intensity-based biochemical primary high throughput dose response assay to identify activators of kallikrein-7 (K7) zymogen.
[8] = molecular target: Mitogen-activated protein kinase 10 (Homo sapiens, UniProt P53779); assay: Dose response biochemical screening assay for inhibitors of c-Jun N-Terminal Kinase 3 (JNK3). [Related pubchem assays: 746 ]
[9] = molecular target: Major prion protein (Homo sapiens, UniProt P04156); assay type: functional, cell-based
[10] = cells
[11] = Luminescence-based cell-based high throughput dose response assay to identify activators of the DAF-12 from the parasite S. stercoralis (ssDAF-12).; assay type: functional
[12] = molecular target: T1, Oxysterols receptor LXR-beta (Homo sapiens, UniProt P55055); assay: LXR agonists, Gal4 luciferase reporter, dose response, counter-screen for ssDAF-12 agonist project, cell-based, luminescence, HEK293, S. stercoralis campaign (AID 720737); assay type: functional; conditions: read-out: IC50 (the source's name)
T1 sequence (P55055 whole entry): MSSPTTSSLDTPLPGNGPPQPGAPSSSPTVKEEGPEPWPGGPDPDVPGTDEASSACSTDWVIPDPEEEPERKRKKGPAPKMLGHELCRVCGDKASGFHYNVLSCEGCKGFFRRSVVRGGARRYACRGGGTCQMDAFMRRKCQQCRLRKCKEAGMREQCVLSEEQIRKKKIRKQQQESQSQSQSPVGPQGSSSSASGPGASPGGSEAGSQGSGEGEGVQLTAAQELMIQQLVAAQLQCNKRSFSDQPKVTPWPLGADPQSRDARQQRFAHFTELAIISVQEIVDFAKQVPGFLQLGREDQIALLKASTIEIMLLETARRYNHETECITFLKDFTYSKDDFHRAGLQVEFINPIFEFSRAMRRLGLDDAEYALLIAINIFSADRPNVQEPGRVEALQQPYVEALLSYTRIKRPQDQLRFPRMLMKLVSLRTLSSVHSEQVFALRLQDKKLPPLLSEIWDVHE

[13] = viability inhibitors of stage V gametocytes – luminescence, dose response (AID 1117278); assay type: functional, cell-based;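 note: gametocytes exposed to compound for 24 hours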
[14] = viability loss in human Jurkat cells – cell-based, luminescence, cytotoxicity control for P. falciparum gametocyte viability project, dose response (AID 1117277); assay type: functional;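 note: potency reflects loss of cellular ATP meaning fewer viable cells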
[15] = molecular target: Peroxisome proliferator-activated receptor gamma/Nuclear receptor coactivator 1 (Homo sapiens, UniProt P37231); assay: (§1) TR-FRET dose response biochemical High Throughput Screening assay for agonists of the steroid receptor coactivator 1 (SRC-1) recruitment by the peroxisome proliferator-activated receptor gamma (PPAR gamma): non-selective agonists. [Related pubchem assays (depositor defined):AID1300, AID1808, AID504735, AID631]; assay type: protein assay
[16] = molecular target: Peroxisome proliferator-activated receptor gamma/Nuclear receptor coactivator 3 (Homo sapiens, UniProt P37231); assay: as §1, with “3 (SRC-3)” for “1 (SRC-1)”, “assays: 1301 (Confirmation screen.), 1048 (Primary screen.)]” for “assays (depositor defined):AID1300, AID1808, AID504735, AID631]”; assay type: functional
[17] = molecular target: Peroxisome proliferator-activated receptor gamma/Nuclear receptor coactivator 2 (Homo sapiens, UniProt P37231); assay: TR-FRET dose response biochemical High Throughput Screening assay for agonists of the steroid receptor coactivator 2 (SRC-2) recruitment by the peroxisome proliferator-activated receptor gamma (PPAR gamma): non-selective agonists. [Related pubchem assays: 1297, 1032 ]; assay type: functional
[18] = cells; conditions: A549
[19] = molecular target: T2, Corticotropin-releasing factor receptor 2/Corticotropin-releasing factor-binding protein (Homo sapiens, UniProt P24387+Q13324); assay: Dose Response confirmation of uHTS hits for small molecule antagonists of the CRF-binding protein and CRF-R2 receptor complex.; assay type: functional; conditions: read-out: IC50_Mean
T2 sequence (Q13324 whole entry): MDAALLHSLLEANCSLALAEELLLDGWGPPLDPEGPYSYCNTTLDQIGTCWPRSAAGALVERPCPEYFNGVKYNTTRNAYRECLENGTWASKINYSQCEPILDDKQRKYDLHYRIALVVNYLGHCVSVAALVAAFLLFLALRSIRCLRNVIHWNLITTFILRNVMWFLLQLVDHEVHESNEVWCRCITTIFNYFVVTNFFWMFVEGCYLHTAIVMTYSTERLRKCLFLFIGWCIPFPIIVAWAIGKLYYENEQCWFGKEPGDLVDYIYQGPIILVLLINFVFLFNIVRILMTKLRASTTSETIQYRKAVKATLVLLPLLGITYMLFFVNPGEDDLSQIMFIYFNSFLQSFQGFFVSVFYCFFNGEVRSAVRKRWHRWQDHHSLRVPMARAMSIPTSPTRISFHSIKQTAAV
T2 sequence (P24387 whole entry): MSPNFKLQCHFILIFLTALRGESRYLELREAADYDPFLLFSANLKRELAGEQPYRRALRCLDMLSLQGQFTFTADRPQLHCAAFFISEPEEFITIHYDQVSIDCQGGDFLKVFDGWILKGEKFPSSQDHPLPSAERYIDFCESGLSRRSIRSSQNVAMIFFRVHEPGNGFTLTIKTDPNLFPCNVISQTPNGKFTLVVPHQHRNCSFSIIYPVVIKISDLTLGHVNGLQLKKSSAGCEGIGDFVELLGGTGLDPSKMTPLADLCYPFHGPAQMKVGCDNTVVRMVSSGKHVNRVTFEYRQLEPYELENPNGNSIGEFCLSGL

[20] = molecular target: T2, Corticotropin-releasing factor receptor 2/Corticotropin-releasing factor-binding protein; assay: activators of CRF receptor 2 with binding protein – uHTS hits, confirmation (AID 602473); assay type: functional; conditions: read-out: EC50_Mean

## COCCCN1C(=O)C(O)=C(C(=O)c2ccco2)C1c1cccc(Br)c1 (stereo unspecified)
[1]
  Ki: 31.2 µM (inactive)

## CC(=O)n1cc([C@@H]2C=C(C(=O)Nc3ccccc3)O[C@H](OCc3ccc(CO)cc3)C2)c2ccccc21
[2]
  IC50: > 69.5 µM (inactive)
[3]
  IC50: > 69.5 µM (inactive)

## O=c1cc(-c2c(F)c(F)c(F)c(F)c2F)oc2ccccc12
[4]
  AC50: 17.4 µM (active)
[5]
  AC50: 37.5 µM (active)

## CCOc1ccc(-n2c(N)c(-c3nc4ccccc4[nH]3)sc2=S)cc1
[6]
  IC50: > 122 µM (inactive)

## Nc1ccc(Cl)cc1C(=O)OCC(=O)NC1CCS(=O)(=O)C1 (stereo unspecified)
[7]
  EC50: > 7.72 µM (active)

## Cc1cc(N2C(=O)C(O)=C(C(=O)c3ccc(F)cc3)C2c2cccc(Br)c2)no1 (stereo unspecified)
[1]
  Ki: > 66.7 µM (inactive)

## N#Cc1c(O)nc(SCc2ccc(F)cc2)nc1-c1ccco1
[8]
  IC50: 13.6 µM (not active)
[9]
  IC50: 1.02 µM (active)
[10]
  IC50: > 138 µM (inactive)

## O=C(NCCc1c[nH]c2ccccc12)c1cnccn1
[11]
  IC50: > 67.5 µM (inactive)
[12]
  EC50: > 67.5 µM (inactive)
[13]
  IC50: > 109 µM (inactive)
[14]
  IC50: > 83.3 µM (inactive)

## Cc1ccccc1-c1nnc(S)o1
[15]
  EC50: 71.9 µM (inactive)
[16]
  EC50: > 79.4 µM (not active)
[17]
  EC50: 9.69 µM (active)
[8]
  IC50: 55.5 µM (not active)
[9]
  IC50: 5.75 µM (active)
[10]
  IC50: > 138 µM (inactive)

## COc1cc(C2C3=C(CC(C)(C)CC3=O)N(C)C3=C2C(=O)CC(C)(C)C3)cc(Br)c1O
[18]
  AC50: > 52 µM (inactive)

## CCCc1n[nH]c(SCc2ccc(Cl)cc2Cl)n1
[19]
  IC50: > 47.1 µM (inactive)
[20]
  EC50: > 53 µM (inactive)
[13]
  IC50: > 109 µM (inactive)
[14]
  IC50: > 83.3 µM (inactive)
